Results: ChEMBL document CHEMBL5137058, “Therapeutic Strategies to Target the Androgen Receptor” (J Med Chem, 2022)
pEC50, pIC50, pKi: −log10 of the molar value.

Columns and labels:
[1] = Oral bioavailability in mouse; format: ADME, organism-based; conditions: in vivo
[2] = target: T1, Protein cereblon/Androgen receptor/Cullin-4A (Homo sapiens, UniProt P10275+Q96SW2+Q13619); assay: Protac activity at CRBN/Cullin 4A/Androgen receptor in human LNCaP cells assessed as Androgen receptor degradation; format: cell-based
[3] = target: T1, Protein cereblon/Androgen receptor/Cullin-4A; assay: Protac activity at CRBN/Cullin 4A/Androgen receptor in human VCaP cells assessed as Androgen receptor degradation; format: cell-based
Androgen receptor [4] = target: T2, Androgen receptor (Homo sapiens, UniProt P10275); assay: Agonist activity at human Androgen receptor expressed in human MDA-MB-453 cells cotransfected with MMTV-Luc assessed as transactivation modulation of AR measured by luciferase reporter assay; format: cell-based
T2 sequence (P10275 whole entry): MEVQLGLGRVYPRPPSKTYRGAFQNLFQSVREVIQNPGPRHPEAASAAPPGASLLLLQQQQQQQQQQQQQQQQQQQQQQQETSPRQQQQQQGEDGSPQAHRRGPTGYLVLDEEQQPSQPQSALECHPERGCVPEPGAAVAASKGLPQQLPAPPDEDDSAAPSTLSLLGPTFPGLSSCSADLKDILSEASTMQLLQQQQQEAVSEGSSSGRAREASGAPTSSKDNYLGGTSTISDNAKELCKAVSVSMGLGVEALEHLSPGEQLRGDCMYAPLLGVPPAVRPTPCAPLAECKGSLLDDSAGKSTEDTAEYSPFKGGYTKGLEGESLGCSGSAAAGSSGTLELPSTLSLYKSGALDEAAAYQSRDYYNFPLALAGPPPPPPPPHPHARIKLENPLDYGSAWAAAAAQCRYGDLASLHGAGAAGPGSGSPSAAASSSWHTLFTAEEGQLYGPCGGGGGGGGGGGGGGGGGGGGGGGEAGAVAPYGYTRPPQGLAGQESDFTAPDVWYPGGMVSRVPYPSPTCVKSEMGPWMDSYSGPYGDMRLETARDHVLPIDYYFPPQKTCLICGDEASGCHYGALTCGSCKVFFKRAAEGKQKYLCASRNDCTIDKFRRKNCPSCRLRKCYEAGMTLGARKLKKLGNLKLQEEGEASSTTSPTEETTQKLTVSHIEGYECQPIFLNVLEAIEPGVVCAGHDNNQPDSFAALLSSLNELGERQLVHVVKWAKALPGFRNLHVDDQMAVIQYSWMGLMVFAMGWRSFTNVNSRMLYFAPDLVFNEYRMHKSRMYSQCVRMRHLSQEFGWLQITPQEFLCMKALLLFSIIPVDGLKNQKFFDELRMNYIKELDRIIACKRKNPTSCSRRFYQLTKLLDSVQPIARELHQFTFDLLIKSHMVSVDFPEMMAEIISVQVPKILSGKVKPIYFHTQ

Androgen receptor [5] = target: T2, Androgen receptor; assay: Displacement of [3H]methyltrienolone from Androgen receptor expressed in human MDA-MB-453 cells; format: cell-based
[6] = target: T3, Androgen receptor (Homo sapiens) (UniProt P10275); assay: Agonist activity at human Androgen receptor expressed in human MDA-MB-453 cells cotransfected with MMTV-Luc assessed as transactivation modulation of AR measured by luciferase reporter assay relative to control; format: cell-based; conditions: filed as agonist
T3 sequence (whole entry): T2 sequence (P10275 whole entry)

Androgen receptor [7] = target: Androgen receptor (Rattus norvegicus, UniProt P15207); assay: Binding affinity to rat Androgen receptor in African green monkey COS-7 cells measured by whole-cell binding assay; format: cell-based
[8] = In vivo antagonist activity at Androgen receptor assessed as reduction in wax ester in golden hamster ear model; format: functional, Cricetinae; design: concentration or dose not given beside the values
Androgen receptor [9] = target: T2, Androgen receptor; assay: Binding affinity to human Androgen receptor
Rattus norvegicus [10] = assay: Anti-androgenic activity in testosterone-treated castrated rat assessed as reduction in prostate weight at 2 mg administered orally per day for 5 days; format: functional; design: Activity: scale not given: the % may be the effect or the level left; conditions: route po, time 5 day
[11] = In vivo agonist activity at Androgen receptor in male rat assessed as increase in levator ani muscle weight at 2 mg/kg, po administered for 5 days; format: functional; conditions: time 5 day
[12] = In vivo agonist activity at Androgen receptor in male rat assessed as increase in prostate weight at 2 mg/kg, po administered for 5 days; format: functional; conditions: time 5 day
Androgen receptor [13] = target: Androgen receptor (Mus musculus, UniProt P19091); assay: Agonist activity at Androgen receptor (unknown origin) transfected in mouse C2C12 cells measured by luciferase reporter assay; format: cell-based
LNCaP = assay: Antiproliferative activity against human LNCaP cells; format: functional, cell-based
[14] = target: GABA-A receptor; anion channel; assay: Binding affinity to GABA A receptor (unknown origin); format: protein-complex assay, Homo sapiens
[15] = Antiproliferative activity against refractory human prostate cancer cells; format: functional, cell-based; conditions: Prostate tumor cell line
Androgen receptor [16] = target: T2, Androgen receptor; assay: Antagonist activity at Androgen receptor in human MDA-kb2 cells; format: cell-based
Androgen receptor [17] = target: T2, Androgen receptor; assay: Antagonist activity at Androgen receptor in human MDA-MB-453 cells measured by SEAP reporter gene assay; format: cell-based
Androgen receptor [18] = target: T2, Androgen receptor; assay: Antagonist activity at Androgen receptor in human LNCaP cells measured by SEAP reporter gene assay; format: cell-based
Androgen receptor [19] = target: T2, Androgen receptor; assay: Displacement of [3H]DHT from Androgen receptor expressed in human MDA-MB-453 cells; format: cell-based
Androgen receptor [20] = target: T2, Androgen receptor; assay: Agonist activity to human Androgen receptor in African green monkey COS-7 cells measured by luciferase reporter assay; format: cell-based
[21] = target: T3, Androgen receptor (Homo sapiens); assay: Agonist activity at androgen receptor (unknown origin) at 1 uM relative to control; conditions: filed as agonist
Rattus norvegicus [22] = assay: Anti-androgenic activity in male Wistar rat assessed as decrease in ventral prostate weight at 10 mg/kg, po administered for 15 days; format: functional; design: Activity: scale not given: the % may be the effect or the level left; conditions: time 15 day
Androgen receptor [23] = target: T2, Androgen receptor; assay: Binding affinity to Androgen receptor (unknown origin); conditions: read-out: IC50
Androgen receptor [24] = target: T2, Androgen receptor; assay: Binding affinity to human Androgen receptor measured by fluorescence polarization assay

T1 sequence (Q96SW2 whole entry, one chain of several): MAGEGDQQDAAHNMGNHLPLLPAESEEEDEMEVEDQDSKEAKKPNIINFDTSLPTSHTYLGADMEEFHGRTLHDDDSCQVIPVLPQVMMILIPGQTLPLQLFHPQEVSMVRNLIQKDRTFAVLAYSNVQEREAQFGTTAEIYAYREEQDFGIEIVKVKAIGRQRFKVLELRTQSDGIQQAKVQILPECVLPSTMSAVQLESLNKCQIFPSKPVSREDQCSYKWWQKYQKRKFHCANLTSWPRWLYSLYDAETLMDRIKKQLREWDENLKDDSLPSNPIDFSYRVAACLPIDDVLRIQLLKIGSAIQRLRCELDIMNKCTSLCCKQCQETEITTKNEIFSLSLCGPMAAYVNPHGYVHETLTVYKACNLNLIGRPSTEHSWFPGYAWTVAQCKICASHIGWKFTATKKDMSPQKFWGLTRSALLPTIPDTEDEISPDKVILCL
T1 sequence (Q13619 whole entry, one chain of several): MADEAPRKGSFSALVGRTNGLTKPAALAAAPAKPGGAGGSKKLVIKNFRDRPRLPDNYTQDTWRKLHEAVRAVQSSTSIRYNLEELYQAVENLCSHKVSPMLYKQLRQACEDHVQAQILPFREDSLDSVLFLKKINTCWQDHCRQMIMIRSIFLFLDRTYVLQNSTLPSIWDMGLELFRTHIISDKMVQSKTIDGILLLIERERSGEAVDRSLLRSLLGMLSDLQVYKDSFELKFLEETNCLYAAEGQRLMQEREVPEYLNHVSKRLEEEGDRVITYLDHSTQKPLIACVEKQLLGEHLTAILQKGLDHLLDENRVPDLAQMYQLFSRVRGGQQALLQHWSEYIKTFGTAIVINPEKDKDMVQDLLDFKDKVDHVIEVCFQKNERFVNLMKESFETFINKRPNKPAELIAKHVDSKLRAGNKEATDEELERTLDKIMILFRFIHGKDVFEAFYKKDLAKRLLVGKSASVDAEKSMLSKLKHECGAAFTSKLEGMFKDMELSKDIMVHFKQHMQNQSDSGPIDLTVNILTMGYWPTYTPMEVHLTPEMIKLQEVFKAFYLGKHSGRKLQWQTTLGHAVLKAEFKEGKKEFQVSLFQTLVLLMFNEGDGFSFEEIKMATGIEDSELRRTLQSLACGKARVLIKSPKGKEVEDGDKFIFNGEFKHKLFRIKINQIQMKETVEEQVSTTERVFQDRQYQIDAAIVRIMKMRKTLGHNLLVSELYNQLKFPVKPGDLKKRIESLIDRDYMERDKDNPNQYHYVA
Chain of Androgen receptor (Rattus norvegicus, UniProt P15207) (P15207 whole entry S389L): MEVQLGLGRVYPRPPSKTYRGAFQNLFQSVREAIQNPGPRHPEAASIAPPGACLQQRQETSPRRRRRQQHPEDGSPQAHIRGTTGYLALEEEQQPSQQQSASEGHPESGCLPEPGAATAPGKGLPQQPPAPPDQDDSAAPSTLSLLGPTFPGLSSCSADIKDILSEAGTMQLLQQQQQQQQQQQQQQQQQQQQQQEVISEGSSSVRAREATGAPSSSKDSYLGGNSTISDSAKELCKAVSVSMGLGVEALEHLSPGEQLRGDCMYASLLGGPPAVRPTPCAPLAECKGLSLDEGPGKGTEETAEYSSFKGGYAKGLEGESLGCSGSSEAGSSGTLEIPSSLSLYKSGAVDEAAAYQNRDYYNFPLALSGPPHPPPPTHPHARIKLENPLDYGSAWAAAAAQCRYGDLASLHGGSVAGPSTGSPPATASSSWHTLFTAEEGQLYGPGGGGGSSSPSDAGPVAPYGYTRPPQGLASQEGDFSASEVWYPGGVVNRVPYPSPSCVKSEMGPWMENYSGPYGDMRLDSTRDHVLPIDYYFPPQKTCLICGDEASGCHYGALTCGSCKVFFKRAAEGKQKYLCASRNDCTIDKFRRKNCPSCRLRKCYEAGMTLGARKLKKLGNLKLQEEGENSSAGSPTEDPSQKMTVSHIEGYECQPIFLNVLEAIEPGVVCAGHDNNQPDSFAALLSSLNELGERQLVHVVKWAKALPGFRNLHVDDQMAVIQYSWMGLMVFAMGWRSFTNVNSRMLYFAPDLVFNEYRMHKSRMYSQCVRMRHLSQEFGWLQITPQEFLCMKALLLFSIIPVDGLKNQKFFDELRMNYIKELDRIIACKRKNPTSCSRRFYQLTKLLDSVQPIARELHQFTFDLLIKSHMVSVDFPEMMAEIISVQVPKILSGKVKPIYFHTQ
Chain of Androgen receptor (Mus musculus, UniProt P19091) (P19091 whole entry): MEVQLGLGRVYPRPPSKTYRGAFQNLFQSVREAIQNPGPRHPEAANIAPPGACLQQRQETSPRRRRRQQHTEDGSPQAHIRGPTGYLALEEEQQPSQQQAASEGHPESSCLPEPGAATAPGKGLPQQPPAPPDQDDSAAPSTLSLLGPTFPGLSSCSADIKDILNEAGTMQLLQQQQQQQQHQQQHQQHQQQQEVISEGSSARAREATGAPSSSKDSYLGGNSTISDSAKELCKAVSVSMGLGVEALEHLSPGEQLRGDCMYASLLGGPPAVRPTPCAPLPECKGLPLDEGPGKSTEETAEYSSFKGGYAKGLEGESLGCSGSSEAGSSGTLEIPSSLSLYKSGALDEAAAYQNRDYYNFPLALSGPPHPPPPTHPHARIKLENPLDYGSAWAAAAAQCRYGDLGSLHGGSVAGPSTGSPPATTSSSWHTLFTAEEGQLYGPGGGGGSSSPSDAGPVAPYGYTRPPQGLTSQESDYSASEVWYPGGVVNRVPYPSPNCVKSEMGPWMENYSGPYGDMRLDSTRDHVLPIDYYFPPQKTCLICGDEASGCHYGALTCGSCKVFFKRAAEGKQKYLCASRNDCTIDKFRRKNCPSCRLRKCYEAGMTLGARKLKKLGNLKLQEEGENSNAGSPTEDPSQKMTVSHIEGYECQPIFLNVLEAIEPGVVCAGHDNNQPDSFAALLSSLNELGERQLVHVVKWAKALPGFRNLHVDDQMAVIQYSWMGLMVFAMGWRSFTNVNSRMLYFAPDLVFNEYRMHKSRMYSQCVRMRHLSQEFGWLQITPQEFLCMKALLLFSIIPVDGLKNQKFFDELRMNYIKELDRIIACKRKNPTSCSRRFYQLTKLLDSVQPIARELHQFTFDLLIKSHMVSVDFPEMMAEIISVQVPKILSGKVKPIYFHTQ

CC1(C)[C@H](NC(=O)c2ccc(N3CCN(CC4CCN(c5ccc6c(c5)C(=O)N(C5CCC(=O)NC5=O)C6=O)CC4)CC3)cc2)C(C)(C)[C@H]1Oc1ccc(C#N)c(Cl)c1 (some centres not stated)
bioavailability [1]: 67% | DC50 [2]: 8.3 nM | DC50 [3]: 0.28 nM

CN1C(=O)C(F)=C[C@]2(C)[C@H]3CC[C@]4(C)[C@@H](O)/C(=C/c5cncnc5)C[C@H]4[C@@H]3CC[C@@H]12
pEC50 (Androgen receptor [4]): 7.77 | pIC50 (Androgen receptor [5]): 7.23 | Activity [6]: 141%

OC1(C(F)(F)F)CCCC2c3cc(Cl)c(Cl)cc3NC21 (configuration not stated)
pIC50 (Androgen receptor [7]): 7.57

CC1(C)CN(Cc2ccccc2)C(=O)[C@@H]1Oc1ccc(C#N)c(C(F)(F)F)c1
Activity [8]: 78%

C[C@]12COC(=O)C[C@@H]1CC[C@@H]1[C@@H]2CC[C@@]2(C)[C@H]1CC[C@]2(C)O [OXANDROLONE]
pKi (Androgen receptor [9]): 7.21

Fc1ccc(Cn2c(CC(F)(F)F)nc3cc(Cl)c(Cl)cc32)cc1
ID50 (Rattus norvegicus [10]): 0.13 mg/day | Activity (Rattus norvegicus [10]; at 2 mg): 84%

C[C@@H]1CC[C@H]([C@@H](O)C(F)(F)F)N1c1ccc2[nH]c(=O)cc(C(F)(F)F)c2c1 [LGD-2941]
pKi (Androgen receptor [9]): 8.19

Cc1c(/N=C2\N=C(N)N3N=C(C(F)(F)F)C[C@@]23C)ccc(C#N)c1C(F)(F)F
Activity [11]: 91% | Activity [12]: 36%

N#Cc1ccc(N2CCC[C@@H]2[C@@H](O)C(F)(F)F)cc1C(F)(F)F [VK5211]
pKi (Androgen receptor [9]): 9.00

CO[C@@H]1C(c2ccc(C#N)c(Cl)c2C)=NN2CC[C@H](O)[C@@H]12
pEC50 (Androgen receptor [13]): 9.30

CC(O)(CS(=O)(=O)c1ccc(F)cc1)C(=O)Nc1ccc(C#N)c(C(F)(F)F)c1 (configuration not stated) [BICALUTAMIDE]
pIC50 (LNCaP): 6.80

N#Cc1ccc(O[C@@H]2CCCC[C@H]2C#N)cc1C(F)(F)F
Activity [8]: 64%

CNC(=O)c1ccc(N2C(=S)N(c3cnc(C#N)c(C(F)(F)F)c3)C(=O)C23CCC3)cc1F [APALUTAMIDE]
pIC50 [14]: 5.52

N#Cc1ccc(-n2c(=O)n(Cc3ccccc3)c3ccccc32)cc1C(F)(F)F
pIC50 [15]: 6.77

N#Cc1ccc([C@H]2CCCC[C@H]2O)cc1C(F)(F)F
Activity [8]: 85% | pIC50 (Androgen receptor [16]): 7.05 | pIC50 (Androgen receptor [9]): 7.59

N#Cc1ccc(N2C(=O)[C@H]3[C@@H]4C[C@@H](CN4C(=O)Oc4ccc(F)cc4)N3C2=O)cc1C(F)(F)F
pIC50 (Androgen receptor [17]): 6.46 | pIC50 (Androgen receptor [18]): 5.41 | pKi (Androgen receptor [19]): 7.74

C[C@H]1[C@@H](O)CCN1c1ccc(C#N)c2ccccc12
pIC50 (Androgen receptor [9]): 8.62 | pEC50 (Androgen receptor [20]): 9.49

CC1(C)CN(CCC#N)C(=O)[C@@H]1Oc1ccc(C#N)c(C(F)(F)F)c1
Activity [21]: 89%

N#Cc1ccc(-c2ccccc2O)cc1C(F)(F)F
Activity [8]: 86% | pIC50 (Androgen receptor [16]): 9.70

Cc1ccccc1Sc1ccc(C#N)cc1Cl
Activity [8]: >80%

CN1C(=O)C(F)=C[C@]2(C)[C@H]3CC[C@]4(C)[C@@H](C(=O)NCc5nc6cccnc6[nH]5)CC[C@H]4[C@@H]3CC[C@@H]12 [MK-0773]
pIC50 (Androgen receptor [5]): 8.18

C[C@@H]1CN(c2ccc(C#N)c(C(F)(F)F)c2)[C@@H](C)CN1C(=O)Nc1ccc(C(F)(F)F)nc1
ED50 (Rattus norvegicus [22]; Rattus norvegicus, Wistar, 360 h): 2.2 mg/kg/day | Activity (Rattus norvegicus [22]; dose 10 mg/kg): 67%

CC(O)(COC(=O)c1ccccc1C(F)(F)F)c1cc2cc([N+](=O)[O-])c(C(F)(F)F)cc2[nH]1 (configuration not stated)
pIC50 (Androgen receptor [23]): 6.85

Cc1c(N[C@@H](c2ccc(-c3ccc(C#N)cc3)o2)[C@H](C)O)ccc(C#N)c1Cl
pKi (Androgen receptor [24]): 8.15
